± gives the standard deviation.
Columns and labels:
[1] = chemical recovery from spiked human plasma; higher = better extraction; conditions: pooled human plasma
[2] = chemical recovery into PDMS from spiked human plasma; higher = better extraction; conditions: pooled human plasma, extraction method: PES with PDMS
[3] = chemical recovery by SPE of plasma after PDMS sampling; higher = better extraction; conditions: pooled human plasma, extraction method: HLB SPE of plasma after PES
[4] = extraction method: SPE only (HLB 96-well)
[5] = extraction method: SPE only (HLB 96-well), PES comparison experiment
[6] = extraction method: solvent precipitation (ACN + hexane)
[7] = extraction method: PES+SPE (3 d PDMS equilibration then HLB SPE)
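Wherever chemical recovery by SPE of plasma after PDMS sampling is given: over 400 spiked chemicals quantified by LC-HRMS or GC-HRMS via internal standard calibration, recovery relative to spike mix added to unspiked plasma extract to correct matrix effects.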

Structure (SMILES) | chemical recovery [1, 4] [%] | chemical recovery [1, 5] [%] | chemical recovery [1, 6] [%] | chemical recovery into PDMS ([2]; equilibration time (d): 1) [%] | chemical recovery into PDMS ([2]; equilibration time (d): 3) [%] | chemical recovery into PDMS ([2]; equilibration time (d): 6) [%] | chemical recovery by SPE of plasma ([3]; equilibration time (d): 3) [%] | chemical recovery [1, 7] [%] | chemical recovery by SPE of plasma ([3]; equilibration time (d): 1) [%] | chemical recovery by SPE of plasma ([3]; equilibration time (d): 6) [%]
CCOC(=O)C(C)(C)Oc1ccc(Cl)cc1 [Clofibrate] | 3.33 ± 1.6 | 44.4 ± 7.8 | 23 ± 10 | 40.3 ± 0.95 | 42.9 ± 4.2 | 43 ± 5.5 | 0.676 ± 1.2 |  |  | 
Oc1cc(Cl)ccc1Oc1ccc(Cl)cc1Cl [Triclosan] | 34.5 ± 1.1 | 40.3 ± 7.5 | 40 ± 3.5 | 16 ± 1.1 | 21 ± 0.84 | 22 ± 1.5 | 23.5 ± 2 | 49.8 ± 4.3 | 24.8 ± 8.3 | 20.2 ± 3.3
Clc1cc(Cl)c(-c2cc(Cl)c(Cl)c(Cl)c2Cl)cc1Cl [PCB180] | 1.45 ± 0.68 |  |  |  | 67.8 ± 8 | 73.3 ± 5.7 | 3.71 ± 1 | 40.2 ± 2.1 | 4.51 ± 2.9 | 1.43 ± 0.49
CCCCC(C#N)(Cn1cncn1)c1ccc(Cl)cc1 (centres undefined) [Myclobutanil] |  | 48.5 ± 8.4 | 79.3 ± 2.2 | 38.4 ± 1.9 | 42.1 ± 3.6 | 41.6 ± 0.64 | 1.32 ± 0.3 |  | 1.71 ± 0.26 | 
CC(C)N(C(=O)CCl)c1ccccc1 [Propachlor] | 28.6 ± 2.1 | 41.4 ± 7.8 | 45.1 ± 10 | 31.9 ± 1.8 | 34.7 ± 3.9 | 35.3 ± 2.5 | 2.49 ± 0.44 |  | 1.58 ± 0.41 | 1.58 ± 0.092
CC1(C)O[C@@H]2C[C@H]3[C@@H]4C[C@H](F)C5=CC(=O)C=C[C@]5(C)[C@H]4[C@@H](O)C[C@]3(C)[C@]2(C(=O)CO)O1 [Flunisolide] |  | 46.9 ± 5.2 |  | 5.95 ± 0.6 | 10.2 ± 1.6 | 11.7 ± 2 | 37.1 ± 2.1 |  | 39.7 ± 3.9 | 27.6 ± 2.4
Cc1ccc(NC(=O)N(C)C)cc1Cl [Chlorotoluron] | 46 ± 3.5 | 50.6 ± 6.2 | 74.4 ± 2.2 | 32 ± 1.2 | 34.9 ± 1.4 | 36.3 ± 0.76 | 9.6 ± 1.2 | 61.6 ± 12 | 10.3 ± 0.88 | 5.83 ± 0.28
CN(C)NC(=O)CCC(=O)O [Daminozide] |  | 3.23 ± 3.4 |  |  |  | 0.0133 ± 0.023 | 0.206 ± 0.36 |  | 1.49 ± 2.5 | 0.536 ± 0.28
CC1CCc2cc(F)cc3c(=O)c(C(=O)O)cn1c23 (centres undefined) [Flumequine] | 44.8 ± 8 | 49.8 ± 7.5 | 72.1 ± 3.2 | 0.511 ± 0.092 | 2.26 ± 0.88 | 2.3 ± 1.2 | 43.8 ± 3.9 | 44.1 ± 3.4 | 43.1 ± 2.7 | 40.3 ± 3.2
Nc1cn[nH]c(=O)c1Cl [Desphenyl chloridazon] |  | 6.79 ± 4.2 |  | 0.0144 ± 0.043 | 0.133 ± 0.038 | 0.161 ± 0.2 | 2.06 ± 0.86 |  | 2.76 ± 0.75 | 3.77 ± 0.81
NC(=O)N1c2ccccc2CC(O)c2ccccc21 (centres undefined) [10,11-Dihydro-10-hydroxycarbamazepine] | 49.1 ± 5.4 | 51.2 ± 4.5 | 71.1 ± 3 | 0.612 ± 0.1 | 1.31 ± 0.36 | 1.45 ± 0.21 | 60.8 ± 6 | 47.3 ± 4.9 | 59.8 ± 8.4 | 55.6 ± 7.7
Cc1nc(N(C)C)nc(OC(=O)N(C)C)c1C [Pirimicarb] | 34.3 ± 1.5 | 41.4 ± 5.3 | 64.5 ± 2.5 | 29.3 ± 1.2 | 33.3 ± 1.8 | 34 ± 1.7 | 6.09 ± 1 | 55.6 ± 8 | 6.05 ± 0.55 | 4.09 ± 0.28
CCCCc1c(C)nc(NCC)nc1OS(=O)(=O)N(C)C [Bupirimate] |  | 48.9 ± 8.9 |  | 40.3 ± 1.4 | 43.9 ± 4.2 | 41.4 ± 2.6 | 0.147 ± 0.26 |  |  | 
